Drawing on DBAASP, this text covers MIC for 3 compounds.

In brackets after ≈: the same amount, converted by molar mass. Bounds are passed on as bounds.

Holding throughout (assay): ≥ marks a high value that may be exact or a test limit, other limits are often not marked, values filed in µg/mL are converted to µM
Assay [1] deals with Candida albicans CIB 45437.
The subject of assay [2] is Escherichia coli ATCC 25922.
Assay [3] has as its system Staphylococcus aureus ATCC 25923.
Assay [4] concerns Staphylococcus aureus CIB 85462.
Assay [5] has as its system Escherichia coli CIB 84492.
Assay [6] deals with Klebsiella pneumoniae KpC+001825971.
Assay [7] has as its system Staphylococcus aureus ATCC 259230.
Assay [8] relates to Escherichia coli KpC+001812446.
The subject of assay [9] is Staphylococcus aureus ATCC 6538P.
Assay [10] concerns Staphylococcus aureus ATCC BAA-41.
The test system of another assay is Escherichia coli BL21.
For assay [11], the system named is Escherichia coli ATCC 11303.
The subject of assay [12] is Klebsiella pneumoniae ATCC 13883.
Assay [13] has as its system Pseudomonas aeruginosa PAO1.
The subject of assay [14] is Staphylococcus epidermidis.
The subject of assay [15] is Escherichia coli ATCC 25726.
Assay [16] has as its system Candida albicans ATCC 90028.
Assay [17] relates to Batrachochytrium dendrobatidis JEL-197.

For the compound `CC[C@H](C)[C@H](NC(=O)CN)C(=O)N[C@@H](Cc1ccccc1)C(=O)NCC(=O)N[C@@H](CCCCN)C(=O)N[C@H](C(=O)N[C@@H](CC(C)C)C(=O)NCC(=O)N[C@@H](C)C(=O)NCC(=O)N[C@@H](CCCCN)C(=O)N[C@@H](CCCCN)C(=O)N[C@H](C(=O)N[C@@H](CC(C)C)C(=O)N[C@H]1CSSC[C@@H](C(=O)O)NC(=O)[C@H](CC(C)C)NC(=O)CNC(=O)[C@H](CO)NC(=O)[C@H](CC(C)C)NC(=O)CNC1=O)C(C)C)[C@@H](C)CC` [GIFGKILGAGKKVLCGLSGLC], the MIC (usually the smallest concentration in the dilution series that meets the test's criterion for growth inhibition) in [1] is ≥ 62.9 µM; in assay [2], 15.7 µM (≈ 32 µg/mL); in assay [3], 15.7 µM (≈ 32 µg/mL); in assay [4], 7.86 µM (≈ 16 µg/mL); in assay [5], 15.7 µM (≈ 32 µg/mL).

Turning to `CC[C@H](C)[C@H](NC(=O)[C@H](CCCCN)NC(=O)[C@H](CCCCN)NC(=O)[C@H](Cc1ccccc1)NC(=O)[C@H](CC(C)C)NC(=O)[C@H](CCCCN)NC(=O)[C@H](Cc1c[nH]c2ccccc12)NC(=O)[C@@H](N)CCCCN)C(=O)NCC(=O)N[C@@H](C)C(=O)N[C@H](C(=O)N[C@@H](CC(C)C)C(=O)N[C@@H](CCCCN)C(=O)N[C@H](C(=O)N[C@@H](CC(C)C)C(=O)O)C(C)C)C(C)C` [KWKLFKKIGAVLKVL], the MIC in [6] was 9 µM (≈ 15.9 µg/mL); in assay [7], ≥ 50 µM; in assay [8], 5 µM (≈ 8.86 µg/mL); in [2], 5 µM (≈ 8.86 µg/mL); in [9], 1 µM (≈ 1.77 µg/mL); in assay [10], 1.41 µM (≈ 2.5 µg/mL). For the same compound, the MIC against Escherichia coli BL21 is 0.707 µM (≈ 1.25 µg/mL); in assay [11] it was ≥ 50 µM; in [12] it was ≥ 36 µM; in [13], 2.83 µM (≈ 5.01 µg/mL); in assay [14], 0.707 µM (≈ 1.25 µg/mL).

`CC[C@H](C)[C@H](NC(=O)[C@H](Cc1ccccc1)NC(=O)[C@H](CCCCN)NC(=O)[C@H](CCCCN)NC(=O)[C@H](C)NC(=O)[C@H](CC(C)C)NC(=O)[C@H](CC(N)=O)NC(=O)[C@@H](NC(=O)[C@H](CC(C)C)NC(=O)[C@@H](NC(=O)[C@H](CC(=O)O)NC(=O)[C@H](CC(C)C)NC(=O)[C@H](Cc1ccccc1)NC(=O)[C@@H](N)CC(N)=O)[C@@H](C)O)[C@@H](C)CC)C(N)=O` [NFLDTLINLAKKFI]: the MIC in assay [15] was ≥ 100 µM; in assay [3] it was 50 µM (≈ 82.5 µg/mL); in [16] it was ≥ 50 µM; in assay [17], 25 µM (≈ 41.2 µg/mL).
